A short description of test [1]: IC50 of insulin release inhibition, rat insulinoma INS-1E line, 5 mM glucose, cell-based (AID 1117331). It is filed as functional.
A short description of test [2]: cells. It is filed as functional, cell-based. To be noted: INS-1E.
Test [3] in a line: Late stage results for the probe development effort to identify inhibitors of Plasmodium falciparum gametocytes: Luminescence-based cell-based high throughput dose response assay to identify inhibitors of viability of late stage Plasmodium falciparum gametocytes. It is filed as functional.
Test [4] addresses Ubiquitin carboxyl-terminal hydrolase BAP1 (Homo sapiens, UniProt Q92560). The test can be described thus: inhibition of BAP1 ubiquitin hydrolase activity – biochemical, dose response (AID 714). It is filed as functional.
Test [5] deals with T1, Long-chain-fatty-acid--AMP ligase FadD28 (Mycobacterium tuberculosis, UniProt P9WQ59).
T1 sequence (P9WQ59 whole entry): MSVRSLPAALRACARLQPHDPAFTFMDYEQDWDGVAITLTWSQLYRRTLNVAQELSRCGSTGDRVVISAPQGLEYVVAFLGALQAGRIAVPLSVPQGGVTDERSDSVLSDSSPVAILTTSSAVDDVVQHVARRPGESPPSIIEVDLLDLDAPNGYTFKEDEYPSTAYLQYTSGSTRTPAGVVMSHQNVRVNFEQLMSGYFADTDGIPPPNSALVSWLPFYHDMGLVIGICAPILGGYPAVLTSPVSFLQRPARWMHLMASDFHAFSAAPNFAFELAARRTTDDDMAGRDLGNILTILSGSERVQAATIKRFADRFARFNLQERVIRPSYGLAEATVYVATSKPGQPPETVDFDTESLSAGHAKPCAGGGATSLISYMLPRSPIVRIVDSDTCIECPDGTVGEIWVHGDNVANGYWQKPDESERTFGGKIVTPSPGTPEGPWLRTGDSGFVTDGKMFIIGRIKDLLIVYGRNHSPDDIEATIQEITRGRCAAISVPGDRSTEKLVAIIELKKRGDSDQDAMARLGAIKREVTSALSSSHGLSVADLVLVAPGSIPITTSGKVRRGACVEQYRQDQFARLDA
Nature of the test: Fluorescence polarization aasay to screen for inhibitors that compete for the binding of FadD28 to a bisubstrate Measured in Biochemical System Using Plate Reader - 2147-01_Inhibitor_Dose_CherryPick_Activity. It is filed as functional, Mycobacterium tuberculosis H37Rv. A general note: Fluorescence polarisation rises when a labelled molecule tumbles more slowly, as on binding a larger partner.

The nature of test [6]: HCT116 cell viability decrease, GSK3B pretreatment – CellTiter-Glo, IC50, dose response (AID 1117339). Format: functional. To be noted: HCT-116. (In general: In ATP-based viability assays light output follows the ATP content of the culture.)
Test [7] in a line: cytotoxicity toward Colo320 cells – cell-based, CellTiter-Glo luminescence, IC50, dose response (AID 1117334). The note with it: COLO 320. Format: functional.
A short description of test [8]: cytotoxicity toward HT-29 cells – cell-based, CellTiter-Glo luminescence, IC50, dose response (AID 1117330). Format: functional.
Test [9] can be described thus: cytotoxicity toward HCT116 cells – cell-based, CellTiter-Glo luminescence, IC50, dose response (AID 1117332). Format: functional. The note with it: HCT-116.
Test [10] in a line: SNU-C1 cell viability reduction, dose response, CellTiter-Glo luminescence (AID 1117323). Format: functional, cell-based.
Test [11] can be described thus: Reduced DLD-1 viability, concentration-response, CellTiter-Glo luminescence (AID 1117352). It is filed as functional.
Test [12] can be described thus: rise of 2N DNA cells, HeLa – IC50, dose response (AID 1117349). Format: functional, cell-based.
The nature of test [13]: RKO cell viability reduction, dose response, CellTiter-Glo luminescence (AID 1117322). It is filed as functional.
Test [14] is described as follows: CellTiter-Glo luminescence survival assay, SW480 colon tumor line, concentration-response curve, half-maximal inhibitory concentration (AID 1117338). It is filed as functional.
A short description of test [15]: rise of 4N DNA cells, HeLa – IC50, dose response (AID 1117351). It is filed as functional, cell-based.
For test [16], the system named is Vero. The test can be described thus: Vero cell viability after compound exposure – synthesized analogs, set II, cytotoxicity control for West Nile virus antiviral project, SAR follow-up (AID 2402). It is filed as functional. The note with it: Chlorocebus sabaeus.
Test [17] is described as follows: toxicity to HepG2 liver cells – cell-based, plate reader, dry powder, set 6, cytotoxicity control, dose response (AID 743311). It is filed as functional.
Test [18] is described as follows: PAX5 cellular inhibition readout – cell-based, plate reader, dry powder samples, selectivity assay for PAX8 inhibitor project, dose response (AID 743047).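 Further: HEK293 cells carrying a Pax5 driven CD19 promoter luciferase reporter; potency of inhibitors that lower reporter luminescence.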 It is filed as functional.
Test [19] is described as follows: IGROV1 cell killing – plate reader, dry powder samples, PAX8 inhibitor project, dose response (AID 743043). Format: functional, cell-based. The note with it: IGROV-1.
Test [20] deals with BJ. Nature of the test: BJ-TERT fibroblast viability loss – cell-based, RAS-independent, luminescence, dose response (AID 1933). The note with it: Homo sapiens. Format: functional.
A short description of test [21]: DRD fibroblast viability loss – cell-based, non-viral oncogenic, luminescence, dose response (AID 1934). To be noted: Homo sapiens. Format: functional.
A short description of test [22]: OVCAR-3 cell viability loss – plate reader, dry powder samples, PAX8 inhibitor project, dose response (AID 743044). Format: functional, cell-based.
Test [23] is described as follows: A2780 cell killing – plate reader, dry powder samples, cytotoxicity control, dose response (AID 743046). Format: functional, cell-based.
A short description of test [24]: COV434 cell viability loss – plate reader, dry powder, SA7, cytotoxicity control for PAX8 inhibitor project, dose response (AID 743145). It is filed as functional, cell-based.
Test [25] can be described thus: inhibitors acting on PAX2 in cells – cell-based, plate reader, dry powder samples, selectivity assay for PAX8 inhibitor project, dose response (AID 743048).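 Further: HEK293 cells carrying a WT1 promoter luciferase reporter driven by expressed Pax2; potency is for inhibition of Pax2 driven reporter signal.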 Format: functional.
The target in test [26] is Paired box protein Pax-8 (Homo sapiens, UniProt Q06710). Nature of the test: PAX8 transcriptional activity inhibition in RMG-I – RMG-I cells, luciferase, cherry-pick, dose response (AID 687027).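 Further: luciferase reporter driven by Pax8 target thyroperoxidase promoter measured by SteadyGlo luminescence.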 Format: functional, cell-based.
A short description of test [27]: toxicity toward immortalized ovarian surface epithelium – cell-based, plate reader, dry powder samples, cytotoxicity control for PAX8 inhibitor project, dose response (AID 743045). It is filed as functional.
The subject of test [28] is BJ. The test can be described thus: cells. Format: functional, cell-based. To be noted: Homo sapiens.
The nature of test [29]: HEK-293T viability loss after treatment – luminescence, T-cell screen hits, cytotoxicity control for TCR NF-kB inhibitor project, dose response (AID 489026).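 Further: cells exposed to compound about 14 hours before the viability readout.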 It is filed as functional, cell-based.
Test [30] concerns BJ. The test can be described thus: BJ-TERT-LT-ST fibroblast viability loss – cell-based, RAS-independent, luminescence, dose response (AID 1935).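 Further: BJ fibroblasts immortalized with TERT plus LT and ST oncogenes.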 It is filed as functional. To be noted: Homo sapiens.
Test [31] can be described thus: PAX8-dependent cell viability loss – plate reader, dry powder, dose response (AID 743049). Format: functional, cell-based.
Test [32] in a line: OVCAR4 cell viability loss – plate reader, dry powder, SA11, cytotoxicity control for PAX8 inhibitor project, dose response (AID 743150). Format: functional, cell-based. To be noted: OVCAR-4.
A short description of test [33]: OV-90 cell viability loss – plate reader, dry powder, SA8, PAX8 inhibitor project, dose response (AID 743149). Format: functional, cell-based.

The structures appear in SMILES notation. Where a name gives a salt, the structure may show the parent alone. Activity calls are given as the source filed them.

Chain of Ubiquitin carboxyl-terminal hydrolase BAP1 (Q92560 whole entry): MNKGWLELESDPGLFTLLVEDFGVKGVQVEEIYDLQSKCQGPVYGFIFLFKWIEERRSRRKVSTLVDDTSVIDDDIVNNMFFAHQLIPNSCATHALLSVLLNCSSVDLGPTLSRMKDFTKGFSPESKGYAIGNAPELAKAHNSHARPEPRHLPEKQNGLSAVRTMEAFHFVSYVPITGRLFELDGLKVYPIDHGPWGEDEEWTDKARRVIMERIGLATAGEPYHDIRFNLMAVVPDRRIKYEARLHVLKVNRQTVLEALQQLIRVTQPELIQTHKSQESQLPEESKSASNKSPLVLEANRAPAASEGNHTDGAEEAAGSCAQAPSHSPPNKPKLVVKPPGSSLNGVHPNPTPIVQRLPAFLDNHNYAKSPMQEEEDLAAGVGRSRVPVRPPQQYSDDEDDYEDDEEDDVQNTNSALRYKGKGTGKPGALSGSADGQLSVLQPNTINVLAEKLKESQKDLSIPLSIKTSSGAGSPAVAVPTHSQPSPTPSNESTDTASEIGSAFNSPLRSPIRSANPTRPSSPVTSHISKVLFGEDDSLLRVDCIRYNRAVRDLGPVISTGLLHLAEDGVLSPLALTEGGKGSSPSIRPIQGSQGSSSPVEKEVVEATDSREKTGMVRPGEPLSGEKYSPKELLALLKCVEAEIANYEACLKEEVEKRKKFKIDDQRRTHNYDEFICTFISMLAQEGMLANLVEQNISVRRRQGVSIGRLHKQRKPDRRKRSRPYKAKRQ
Chain of Paired box protein Pax-8 (Q06710 whole entry): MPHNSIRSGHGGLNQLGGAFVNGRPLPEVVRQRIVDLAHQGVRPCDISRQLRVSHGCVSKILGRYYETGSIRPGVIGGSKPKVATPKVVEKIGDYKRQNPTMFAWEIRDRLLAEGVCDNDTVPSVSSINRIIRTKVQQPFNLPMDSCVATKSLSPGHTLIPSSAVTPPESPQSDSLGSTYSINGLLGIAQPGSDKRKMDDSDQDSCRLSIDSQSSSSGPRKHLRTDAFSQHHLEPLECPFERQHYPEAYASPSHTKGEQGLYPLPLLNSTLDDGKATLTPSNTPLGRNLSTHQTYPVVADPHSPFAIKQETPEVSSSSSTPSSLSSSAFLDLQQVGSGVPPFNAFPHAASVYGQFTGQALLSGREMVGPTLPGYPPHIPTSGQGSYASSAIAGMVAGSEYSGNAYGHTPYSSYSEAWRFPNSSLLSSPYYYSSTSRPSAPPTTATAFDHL

As for `NC[C@H]1CC[C@H](C(=O)Oc2ccc(CCC(=O)O)cc2)CC1` [CETRAXATE HYDROCHLORIDE], the IC50 in [1] and in test [2] was > 33300 nM (inactive) throughout.
With `Cc1cnc(NC(=O)c2cn(-c3ccccc3)nc2-c2cccnc2)s1`, the IC50 (usually the concentration needed to halve the response being measured) in test [3] is > 74400 nM (inactive).
Take `CC1CCCN(S(=O)(=O)c2ccc(NC(=O)Cn3nnc(-c4ccccc4F)n3)cc2)C1` (stereo not drawn): the IC50 in [4] was 41600 nM (not active). Also, the AC50 (usually the concentration at which the activity in the assay is half-maximal) in test [5] is > 100000 nM (inactive).
Take `Cc1nc(N)nc(N)c1-c1ccc(Cl)c(Cl)c1` [METOPRINE]: the IC50 in test [6] was 58.9 nM (active); in [7], 2030 nM (active); in [8] it was 932 nM (active); in test [9], 413 nM (active); in test [10], 2160 nM (active); in test [11] it was 634 nM (active). Also, the IC50 in test [12] is > 10000 nM (inactive); in [13], 117 nM (active); in [14], 512 nM (active); in [15] it was > 10000 nM (inactive).
With `OC1c2cc(Br)ccc2N=C2CCCCN21` (stereo not drawn), in test [16], the half-maximal cytotoxic concentration (CC50) (in general, the concentration at which the toxic effect on the cells reaches its halfway point) is > 200000 nM (active).
In the case of `O=S(=O)(c1ccc(OCCn2cnc3ccccc32)cc1)N1CCOCC1`, in test [17], the AC50 was > 52000 nM (inactive).
For the compound `CCOCCCNC(=O)c1ccc2c(c1)N=C(CC)c1cc(Br)ccc1S2`, the AC50 in test [18] is 41800 nM (active); in test [19], 4780 nM (active); in test [22] it was 300 nM (active); in test [23], 1350 nM (active); in test [24] it was 1070 nM (active); in test [25], 15300 nM (active). For the same compound, the AC50 is 1220 nM (active) in test [26]; 403 nM (active) in [27]; 386 nM (active) in test [31]; 1160 nM (active) in test [32]; 497 nM (active) in test [33]. Also, the EC50 (in general, the concentration giving half of the maximal effect) in [20] was 342 nM (active); in test [21], 358 nM (active); in [28], 828 nM (inconclusive); in test [30], 455 nM (active). Moreover, the IC50 in test [29] is > 80000 nM (inactive).

The values above are taken from ChEMBL document CHEMBL1201862, “PubChem BioAssay data set” (2004).
